Assay results taken from the supplement of paper PMC10307832.

Key:
Experiment in all cases: relative viability (nuclei count vs DMSO), 5 days (fraction); higher = more cells survive
[1] = compound: OCc1c[nH]c2ccccc12 [Indole-3-carbinol] + Cc1nc(Nc2ncc(C(=O)Nc3c(C)cccc3Cl)s2)cc(N2CCN(CCO)CC2)n1 [Dasatinib] (partner 0.075 µM)
How it was run: (§1)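 Nuclei were stained with Hoechst during a one-step fixation (final 0.05% Triton X-100, 1% formaldehyde, 1 ug/ml Hoechst) carried out 5 days after dosing, then counted on 4× images. The cells, lung cancer lines in 1536-well plates, had been dosed by pin tool the day after seeding with one drug alone or a fixed anchor-drug dose plus five library-drug doses (not always all listed) in √10 steps. Relative viability is the nuclei count in treated wells divided by that in vehicle wells, and each value is the median of duplicate plates.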

[2] = compound: OCc1c[nH]c2ccccc12 [Indole-3-carbinol] + COc1cc2c(Oc3ccc(NC(=O)C4(C(=O)Nc5ccc(F)cc5)CC4)cc3F)ccnc2cc1OCCCN1CCOCC1 [Foretinib] (partner 0.25 µM)
How it was run: as §1

[3] = compound: OCc1c[nH]c2ccccc12 [Indole-3-carbinol] + CCNC(=O)c1noc(-c2cc(C(C)C)c(O)cc2O)c1-c1ccc(CN2CCOCC2)cc1 [Luminespib] (partner 0.01 µM)
How it was run: as §1

[4] = compound: OCc1c[nH]c2ccccc12 [Indole-3-carbinol] + Cc1cc(Nc2cc(N3CCN(C)CC3)nc(Sc3ccc(NC(=O)C4CC4)cc3)n2)n[nH]1 [Tozasertib] (partner 0.1 µM)
How it was run: as §1

[5] = compound: OCc1c[nH]c2ccccc12 [Indole-3-carbinol] + COc1cccc2cc(-c3nc([C@H]4CC[C@H](C(=O)O)CC4)n4ncnc(N)c34)[nH]c12 [OSI-027] (partner 0.5 µM)
How it was run: as §1

[6] = compound: OCc1c[nH]c2ccccc12 [Indole-3-carbinol] + N=C(N)NC(=N)NCCc1ccccc1 [Phenformin] (partner 250 µM)
How it was run: as §1

Indole-3-carbinol = compound: OCc1c[nH]c2ccccc12 [Indole-3-carbinol]
How it was run: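 For viability, nuclei in each treated well were divided by nuclei in vehicle wells and the median across plates was taken. Lung cancer cell lines in 1536-well plates were pinned with five library-drug doses (not always all listed) spaced by √10, cultured 5 days without medium change, and imaged at 4× after Hoechst staining, with plates passing only at control CV below 25% and at least one doubling.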

[7] = compound: OCc1c[nH]c2ccccc12 [Indole-3-carbinol] + Nc1nc2[nH]cc(CCc3ccc(C(=O)N[C@@H](CCC(=O)O)C(=O)O)cc3)c2c(=O)[nH]1 [Pemetrexed] (partner 0.2 µM)
How it was run: as §1

[8] = compound: OCc1c[nH]c2ccccc12 [Indole-3-carbinol] + CC(=O)Nc1cccc(-n2c(=O)n(C3CC3)c(=O)c3c(Nc4ccc(I)cc4F)n(C)c(=O)c(C)c32)c1 [Trametinib] (partner 0.02 µM)
How it was run: as §1

[9] = compound: OCc1c[nH]c2ccccc12 [Indole-3-carbinol] + O=C(CCCCCCC(=O)Nc1ccccc1)NO [Vorinostat] (partner 1 µM)
How it was run: as §1

[10] = compound: OCc1c[nH]c2ccccc12 [Indole-3-carbinol] + NC(=O)Nc1cc(-c2cccc(F)c2)sc1C(=O)N[C@H]1CCCNC1 [AZD7762] (partner 0.2 µM)
How it was run: as §1

[11] = compound: OCc1c[nH]c2ccccc12 [Indole-3-carbinol] + Nc1ncn([C@H]2C[C@H](O)[C@@H](CO)O2)c(=O)n1 [Decitabine] (partner 2 µM)
How it was run: as §1

[12] = compound: OCc1c[nH]c2ccccc12 [Indole-3-carbinol] + CC(=O)c1c(C)c2cnc(Nc3ccc(N4CCNCC4)cn3)nc2n(C2CCCC2)c1=O [Palbociclib] (partner 0.5 µM)
How it was run: as §1

[13] = compound: OCc1c[nH]c2ccccc12 [Indole-3-carbinol] + O=C(c1cc(Cc2n[nH]c(=O)c3ccccc23)ccc1F)N1CCN(C(=O)C2CC2)CC1 [Olaparib] (partner 8 µM)
How it was run: as §1

NCI-H1623
relative viability ([1]; first compound 0.253 µM): 0.531
relative viability ([1]; first compound 0.8 µM): 0.566
relative viability ([1]; first compound 2.53 µM): 0.539
relative viability ([1]; first compound 8 µM): 0.577
relative viability ([2]; first compound 0.253 µM): 0.881
relative viability ([2]; first compound 0.8 µM): 0.989
relative viability ([2]; first compound 2.53 µM): 0.803
relative viability ([2]; first compound 8 µM): 0.858
relative viability ([3]; first compound 0.253 µM): 0.425
relative viability ([3]; first compound 0.8 µM): 0.543
relative viability ([3]; first compound 2.53 µM): 0.532
relative viability ([3]; first compound 8 µM): 0.529
relative viability ([4]; first compound 0.253 µM): 0.467
relative viability ([4]; first compound 0.8 µM): 0.486
relative viability ([4]; first compound 2.53 µM): 0.39
relative viability ([4]; first compound 8 µM): 0.453
relative viability ([5]; first compound 0.253 µM): 0.412
relative viability ([5]; first compound 0.8 µM): 0.443
relative viability ([5]; first compound 2.53 µM): 0.424
relative viability ([5]; first compound 8 µM): 0.436
relative viability ([6]; first compound 0.253 µM): 0.725
relative viability ([6]; first compound 0.8 µM): 0.611
relative viability ([6]; first compound 2.53 µM): 0.571
relative viability ([6]; first compound 8 µM): 0.551
relative viability (Indole-3-carbinol; 0.253 µM): 0.924
relative viability (Indole-3-carbinol; 0.8 µM): 1.02
relative viability (Indole-3-carbinol; 2.53 µM): 0.984
relative viability (Indole-3-carbinol; 8 µM): 0.978

NCI-H1648
relative viability ([7]; first compound 0.253 µM): 0.663
relative viability ([7]; first compound 0.8 µM): 0.745
relative viability ([7]; first compound 2.53 µM): 0.822
relative viability ([7]; first compound 8 µM): 0.715
relative viability ([8]; first compound 0.253 µM): 0.486
relative viability ([8]; first compound 0.8 µM): 0.423
relative viability ([8]; first compound 2.53 µM): 0.59
relative viability ([8]; first compound 8 µM): 0.521
relative viability ([9]; first compound 0.253 µM): 0.301
relative viability ([9]; first compound 0.8 µM): 0.825
relative viability ([9]; first compound 2.53 µM): 0.333
relative viability ([9]; first compound 8 µM): 0.41
relative viability ([10]; first compound 0.253 µM): 0.555
relative viability ([10]; first compound 0.8 µM): 0.613
relative viability ([10]; first compound 2.53 µM): 0.773
relative viability ([10]; first compound 8 µM): 0.637
relative viability ([4]; first compound 0.253 µM): 0.835
relative viability ([4]; first compound 0.8 µM): 0.488
relative viability ([4]; first compound 2.53 µM): 0.439
relative viability ([4]; first compound 8 µM): 0.473
relative viability ([11]; first compound 0.253 µM): 0.482
relative viability ([11]; first compound 0.8 µM): 0.434
relative viability ([11]; first compound 2.53 µM): 0.598
relative viability ([11]; first compound 8 µM): 0.499
relative viability ([5]; first compound 0.253 µM): 0.258
relative viability ([5]; first compound 0.8 µM): 0.235
relative viability ([5]; first compound 2.53 µM): 0.272
relative viability ([5]; first compound 8 µM): 0.242
relative viability ([12]; first compound 0.253 µM): 0.31
relative viability ([12]; first compound 0.8 µM): 0.248
relative viability ([12]; first compound 2.53 µM): 0.296
relative viability ([12]; first compound 8 µM): 0.289
relative viability ([13]; first compound 0.253 µM): 1.27
relative viability ([13]; first compound 0.8 µM): 0.69
relative viability ([13]; first compound 2.53 µM): 0.868
relative viability ([13]; first compound 8 µM): 0.572
relative viability (Indole-3-carbinol; 0.253 µM): 1.07
relative viability (Indole-3-carbinol; 0.8 µM): 0.846
relative viability (Indole-3-carbinol; 2.53 µM): 0.911
relative viability (Indole-3-carbinol; 8 µM): 0.949
